1 molecule from ChEMBL document CHEMBL2074252, “The specific bisindolylmaleimide PKC-inhibitor GF 109203X efficiently modulates MRP-associated multiple drug resistance” (Biochem Biophys Res Commun, 1995) can be followed below.

The series addresses Multidrug resistance-associated protein 1 (Homo sapiens, UniProt P33527). The series can be described thus: TP_TRANSPORTER: inhibition of Rhodamine 123 efflux (R123: 0.8 ug/mL, GF109203X: 10 uM) in HL60/AR cells. The series is classed as functional, cell-based.

Multidrug resistance-associated protein 1, sequence (P33527 whole entry): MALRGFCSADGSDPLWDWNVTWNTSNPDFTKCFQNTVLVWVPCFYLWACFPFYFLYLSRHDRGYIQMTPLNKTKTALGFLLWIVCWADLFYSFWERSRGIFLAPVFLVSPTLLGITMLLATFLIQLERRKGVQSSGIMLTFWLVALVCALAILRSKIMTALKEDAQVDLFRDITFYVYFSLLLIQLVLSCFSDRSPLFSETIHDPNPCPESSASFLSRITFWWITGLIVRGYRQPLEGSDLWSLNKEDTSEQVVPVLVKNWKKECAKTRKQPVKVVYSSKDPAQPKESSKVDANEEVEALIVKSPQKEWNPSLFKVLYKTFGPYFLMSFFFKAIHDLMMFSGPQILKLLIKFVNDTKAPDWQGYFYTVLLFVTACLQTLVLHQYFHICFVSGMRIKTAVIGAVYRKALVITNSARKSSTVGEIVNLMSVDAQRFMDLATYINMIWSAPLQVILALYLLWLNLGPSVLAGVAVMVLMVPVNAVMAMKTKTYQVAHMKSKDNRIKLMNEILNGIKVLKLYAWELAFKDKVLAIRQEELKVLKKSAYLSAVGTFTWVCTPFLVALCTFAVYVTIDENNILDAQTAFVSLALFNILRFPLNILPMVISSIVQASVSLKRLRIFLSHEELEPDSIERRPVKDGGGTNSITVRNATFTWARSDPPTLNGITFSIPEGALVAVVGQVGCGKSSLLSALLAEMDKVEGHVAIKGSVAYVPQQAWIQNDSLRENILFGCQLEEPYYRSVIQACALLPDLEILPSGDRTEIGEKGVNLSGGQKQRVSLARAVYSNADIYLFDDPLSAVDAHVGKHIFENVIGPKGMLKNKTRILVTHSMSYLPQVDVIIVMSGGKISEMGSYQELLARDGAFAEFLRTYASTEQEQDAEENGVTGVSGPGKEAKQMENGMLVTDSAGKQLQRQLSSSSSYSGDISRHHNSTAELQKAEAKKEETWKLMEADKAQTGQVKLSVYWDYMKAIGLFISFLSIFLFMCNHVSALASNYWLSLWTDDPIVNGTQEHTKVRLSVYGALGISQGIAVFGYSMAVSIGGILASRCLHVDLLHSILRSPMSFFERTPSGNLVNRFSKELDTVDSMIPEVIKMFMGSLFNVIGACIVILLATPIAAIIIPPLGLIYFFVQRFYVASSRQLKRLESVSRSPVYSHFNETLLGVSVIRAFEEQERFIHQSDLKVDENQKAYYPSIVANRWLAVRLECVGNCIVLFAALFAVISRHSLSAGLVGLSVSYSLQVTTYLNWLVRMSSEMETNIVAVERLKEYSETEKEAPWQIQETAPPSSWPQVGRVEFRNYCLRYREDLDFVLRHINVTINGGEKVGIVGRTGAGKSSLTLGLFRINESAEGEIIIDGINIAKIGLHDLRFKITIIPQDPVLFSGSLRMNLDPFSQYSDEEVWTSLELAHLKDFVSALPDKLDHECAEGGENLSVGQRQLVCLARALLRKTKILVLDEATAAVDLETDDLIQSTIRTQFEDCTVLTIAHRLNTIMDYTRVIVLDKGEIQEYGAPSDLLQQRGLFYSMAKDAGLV

As for `CN(C)CCCn1cc(C2=C(c3c[nH]c4ccccc34)C(=O)NC2=O)c2ccccc21` [GF-109203], the Activity result was “inhibitor [+]”.
